Data from US20230295234A1, “ANTIMICROBIAL PEPTIDOMIMETICS” (SPEXIS AG, priority 2020, published 2023).
Like-named read-outs stand apart in the source and are kept apart here. Bridge positions count the residues as written; N and C are the ends. Square brackets hold non-standard residues; d marks the D form. Peptide text beside a SMILES is read from it. Pen = CC(C)(S)[C@H](N)C(=O)O; dDab = NCC[C@@H](N)C(=O)O; Dab = NCC[C@H](N)C(=O)O; Nlys = NCCCCNCC(=O)O

Tests used:
[1] = test system: Escherichia coli ATCC 25922; conditions: ATCC 25922
Outline: (§1)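 Two-fold serial dilutions of peptide, in water with polysorbate 80 (0.002% final), met bacteria adjusted to 0.5 McFarland then diluted to about 5×10^5 CFU/mL. Medium was cation-adjusted Mueller-Hinton II broth; peptide stocks were 1 mg/mL in sterile water.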

[2] = test system: Escherichia coli MCR-1 Af 45
Outline: as §1

[3] = test system: Klebsiella pneumoniae SSI3010; conditions: SSI3010
Outline: as §1

[4] = test system: human red blood cells (hRBC); experiment: Hemolysis of human red blood cells; type: cell-based; conditions: red cells of human, 1 h
Outline: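 PBS-washed human red blood cells (20% v/v) were incubated with peptide at 200 μg/mL for 1 h at 37 °C with shaking. Supernatant OD was read at 540 nm after 8-fold dilution. Hemolysis is expressed as percent of the water control.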

| Escherichia coli ATCC 25922 MIC [1] | Escherichia coli MCR-1 Af 45 MIC ([2]; MCR-1 Af 45) | Klebsiella pneumoniae SSI3010 MIC [3] | Compound | Hemolysis at 0.2 g/L [4] | Escherichia coli MCR-1 Af 45 MIC ([2]; Mueller-Hinton broth II, 18-20 hours at 35° C.) |
| --- | --- | --- | --- | --- | --- |
| 0.125 µg/mL | 0.0625 µg/mL | 0.25 µg/mL | CC[C@H](C)[C@H](NC(=O)CN(CCCCN)C(=O)[C@@H](NC(=O)CNCCCCN)C(C)C)C(=O)N[C@H](C(=O)N[C@@H](Cc1ccc(O)cc1)C(=O)N[C@@H]1C(=O)N[C@@H](CC(N)=O)C(=O)N[C@@H](CCCNC(=N)N)C(=O)N[C@@H](CCN)C(=O)N[C@@H]([C@@H](C)O)C(=O)N[C@H](CCN)C(=O)N[C@@H](CCCCN)C(=O)N[C@H](C(=O)N[C@@H](CCN)C(=O)N[C@@H](CCCNC(=N)N)C(=O)N[C@@H](Cc2ccc(O)cc2)C(=O)O)CSSC1(C)C)[C@@H](C)CC [Example 31, Nlys-Val-Nlys-Ile-Ile-Tyr-Pen-Asn-Arg-Dab-Thr-^DDab-Lys-Cys-Dab-Arg-Tyr] (H-[Nlys]V[Nlys]IIY[Pen]NR[Dab]T[dDab]KC[Dab]RY-OH; disulfide 7-14) | 0% |  |
| 0.125 µg/mL | 0.0625 µg/mL | 0.25 µg/mL | CC[C@H](C)[C@H](NC(=O)[C@@H]1C[C@@H](O)CN1C(=O)[C@@H](NC(=O)[C@@H]1C[C@@H](O)CN1C(=O)[C@@H](N)CCCCN)C(C)C)C(=O)N[C@H](C(=O)N[C@@H](Cc1ccc(O)cc1)C(=O)N[C@@H]1C(=O)N[C@@H](CC(N)=O)C(=O)N[C@@H](CCCNC(=N)N)C(=O)N[C@@H](CCN)C(=O)N[C@@H]([C@@H](C)O)C(=O)N[C@H](CCN)C(=O)N[C@@H](CCCCN)C(=O)N[C@H](C(=O)N[C@@H](CCN)C(=O)N[C@@H](CCCNC(=N)N)C(=O)N[C@@H](Cc2ccc(O)cc2)C(=O)O)CSSC1(C)C)[C@@H](C)O [Example 41, Lys-Hyp-Val-Hyp-Ile-Thr-Tyr-Pen-Asn-Arg-Dab-Thr-^DDab-Lys-Cys-Dab-Arg-Tyr] (HELM PEPTIDE1{K.[Hyp].V.[Hyp].I.T.Y.[Pen].N.R.[Dab].T.[NCC[C@@H](N[*:1])C(=O)[*:2]].K.C.[Dab].R.Y}$PEPTIDE1,PEPTIDE1,8:R3-15:R3$$$V2.0) | 0% |  |
| 0.0625 µg/mL | ≤0.03125 µg/mL | 0.0625 µg/mL | CC[C@H](C)[C@H](NC(=O)[C@@H](NC(=O)[C@@H]1CCCN1C(=O)[C@@H](NC(=O)[C@@H]1CCCN1C(=O)CN(C)C(=O)[C@@H](N)CCCCN)C(C)C)[C@@H](C)CC)C(=O)N[C@@H](Cc1ccc(O)cc1)C(=O)N[C@@H]1C(=O)N[C@@H](CC(N)=O)C(=O)N[C@@H](CCCNC(=N)N)C(=O)N[C@@H](CCN)C(=O)N[C@@H]([C@@H](C)O)C(=O)N[C@H](CCN)C(=O)N[C@@H](CCCCN)C(=O)N[C@H](C(=O)N[C@@H](CCN)C(=O)N[C@@H](CCCNC(=N)N)C(=O)N[C@@H](Cc2ccc(O)cc2)C(=O)O)CSSC1(C)C [Example 92, Lys-Sar-Pro-Val-Pro-Ile-Ile-Tyr-Pen-Asn-Arg-Dab-Thr-^DDab-Lys-Cys-Dab-Arg-Tyr] (HELM PEPTIDE1{K.[Sar].P.V.P.I.I.Y.[Pen].N.R.[Dab].T.[NCC[C@@H](N[*:1])C(=O)[*:2]].K.C.[Dab].R.Y}$PEPTIDE1,PEPTIDE1,9:R3-16:R3$$$V2.0) | 0% |  |

| Compound | Escherichia coli ATCC 25922 MIC [1] | Escherichia coli MCR-1 Af 45 MIC ([2]; MCR-1 Af 45) | Klebsiella pneumoniae SSI3010 MIC [3] | Hemolysis at 0.2 g/L [4] | Escherichia coli MCR-1 Af 45 MIC ([2]; Mueller-Hinton broth II, 18-20 hours at 35° C.) |
| --- | --- | --- | --- | --- | --- |
| CC[C@H](C)[C@H](NC(=O)[C@@H]1C[C@@H](O)CN1C(=O)[C@@H](N)C(C)C)C(=O)N[C@@H](CCCCN)C(=O)N[C@@H](Cc1ccc(O)cc1)C(=O)N[C@@H]1C(=O)N[C@@H](CC(N)=O)C(=O)N[C@@H](CCCNC(=N)N)C(=O)N[C@@H](CCN)C(=O)N[C@@H]([C@@H](C)O)C(=O)N[C@H](CCN)C(=O)N[C@@H](CCCCN)C(=O)N[C@H](C(=O)N[C@@H](CCN)C(=O)N[C@@H](CCCNC(=N)N)C(=O)N[C@@H](Cc2ccc(O)cc2)C(=O)O)CSSC1(C)C [Example 159] (HELM PEPTIDE1{V.[Hyp].I.K.Y.[Pen].N.R.[Dab].T.[NCC[C@@H](N[*:1])C(=O)[*:2]].K.C.[Dab].R.Y}$PEPTIDE1,PEPTIDE1,6:R3-13:R3$$$V2.0) | 0.125 µg/mL |  | 0.5 µg/mL | 0% | 0.25 µg/mL |
